This is an account of results in ChEMBL document CHEMBL1128364 (J Med Chem, 1995).

Numbered stars: 1 amine (or outer) side, 2 acyl side, 3 side chain; on linkers, the order of the positions; unused ones are H or OH. Bridge positions count the residues as written; N and C are the ends. Square brackets hold non-standard residues; d marks the D form. Peptide text beside a SMILES is read from it. X2 = O=C(CC1(S[*:2])CCCCC1)[*:1] Bounds are passed on as bounds.

In test [1] the target is T1, Oxytocin receptor (Rattus norvegicus, UniProt P70536).
T1 sequence (P70536 whole entry): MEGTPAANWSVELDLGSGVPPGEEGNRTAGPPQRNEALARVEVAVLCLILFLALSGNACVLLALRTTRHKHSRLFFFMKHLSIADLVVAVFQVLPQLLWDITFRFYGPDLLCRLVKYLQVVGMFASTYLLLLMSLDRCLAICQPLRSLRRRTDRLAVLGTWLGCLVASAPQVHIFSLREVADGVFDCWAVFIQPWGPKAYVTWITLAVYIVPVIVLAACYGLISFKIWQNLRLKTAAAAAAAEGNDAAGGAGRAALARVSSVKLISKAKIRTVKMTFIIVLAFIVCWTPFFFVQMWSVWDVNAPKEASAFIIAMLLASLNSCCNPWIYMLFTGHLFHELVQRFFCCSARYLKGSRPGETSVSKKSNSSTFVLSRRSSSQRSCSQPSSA
The experiment in a line: In vitro anti-oxytocic activity with 0.5 mM Mg2+. To be noted: for Kb: read-out: pA2 (converted).

Test [2] deals with T1, Oxytocin receptor. The experiment in a line: In vitro anti-oxytocic activity with out Mg2+. To be noted: for Kb: read-out: pA2 (converted).
The test system of test [3] is Rattus norvegicus. The test is described as follows: (§1) In vivo anti-oxytocic activity was determined. Format: functional, organism-based. To be noted: read-out: pA2 (converted).
Test [4] addresses Vasopressin V1a receptor (Rattus norvegicus, UniProt P30560). The experiment in a line: (§2) Anti-vasopressor activity at V1a receptor. To be noted: for Kb: read-out: pA2 (converted).
Test [5] deals with Vasopressin V2 receptor (Rattus norvegicus, UniProt Q00788). The test is described as follows: (§3) Antidiuretic activity at V2 receptor. Format: tissue-based, Urine. To be noted: read-out: pA2 (converted).
Chain of Vasopressin V2 receptor (Q00788 whole entry): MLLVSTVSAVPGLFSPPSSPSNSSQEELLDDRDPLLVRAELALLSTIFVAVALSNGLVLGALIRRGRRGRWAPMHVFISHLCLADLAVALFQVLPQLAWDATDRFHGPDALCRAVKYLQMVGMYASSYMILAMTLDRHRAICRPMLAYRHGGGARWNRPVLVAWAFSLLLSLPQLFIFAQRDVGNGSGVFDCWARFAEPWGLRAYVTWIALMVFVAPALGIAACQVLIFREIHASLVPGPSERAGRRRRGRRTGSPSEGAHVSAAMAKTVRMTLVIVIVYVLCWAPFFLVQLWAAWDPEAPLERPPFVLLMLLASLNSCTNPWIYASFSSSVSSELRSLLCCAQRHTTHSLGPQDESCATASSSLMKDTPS
The target of test [6] is Vasopressin V1a receptor (Rattus norvegicus) (UniProt P30560). The test is described as §2.
Chain of Vasopressin V1a receptor (Rattus norvegicus) (P30560 whole entry, looked up): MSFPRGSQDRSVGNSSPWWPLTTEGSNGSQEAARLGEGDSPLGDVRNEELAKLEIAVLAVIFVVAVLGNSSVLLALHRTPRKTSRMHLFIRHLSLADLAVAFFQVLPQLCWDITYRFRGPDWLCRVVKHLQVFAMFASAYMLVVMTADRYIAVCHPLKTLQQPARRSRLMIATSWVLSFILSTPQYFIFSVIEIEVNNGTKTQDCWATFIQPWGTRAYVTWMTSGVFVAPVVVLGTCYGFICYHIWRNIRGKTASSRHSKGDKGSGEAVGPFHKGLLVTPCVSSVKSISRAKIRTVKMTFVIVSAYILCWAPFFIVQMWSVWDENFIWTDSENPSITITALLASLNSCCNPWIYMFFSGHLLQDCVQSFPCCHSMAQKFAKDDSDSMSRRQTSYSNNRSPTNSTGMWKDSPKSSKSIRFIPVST
For test [7], the system named is Rattus norvegicus. The test is described as §1. The format is functional.
Test [8] has as its target Vasopressin V2 receptor (Rattus norvegicus) (UniProt Q00788). Described as §3. The format is tissue-based. To be noted: Urine.
Test [9] shares this target. The experiment in a line: Antidiuretic activity at V2 receptor. To be noted: Urine.
For test [10], the target named is T1, Oxytocin receptor. The test is described as follows: In vitro antioxycic activity with out Mg2+. To be noted: read-out: pA2 (converted).

Chain of Vasopressin V1a receptor (P30560 whole entry): as the sequence (P30560 whole entry, looked up) above
Chain of Vasopressin V2 receptor (Rattus norvegicus) (Q00788 whole entry): as the sequence (Q00788 whole entry) above

As for `CC[C@H](C)[C@@H]1NC(=O)[C@H](Cc2ccc(OC)cc2)NC(=O)CC2(CCCCC2)SSC[C@H](C(=O)N2CCC[C@H]2C(=O)N[C@@H](CCCN)C(=O)O)NC(=O)[C@H](CC(N)=O)NC(=O)[C@H]([C@@H](C)O)NC1=O` [listing 1 of 2 here], the Kb is 0.0251 µM in test [1]; 0.0186 µM in [2]; 0.138 µM in test [3]; 0.275 µM in [4]; 3.98 µM in test [5].
Consider `CC(C)[C@@H]1NC(=O)[C@H](Cc2ccccc2)NC(=O)[C@@H](Cc2ccccc2)NC(=O)CC2(CCCCC2)SSC[C@@H](C(=O)N2CCC[C@H]2C(=O)N[C@@H](CCCN=C(N)N)C(=O)NCC(N)=O)NC(=O)[C@H](CC(N)=O)NC1=O`, for which the Kb in test [4] is 0.00871 µM; in test [5], 0.00851 µM.
On to `CC[C@H](C)[C@@H]1NC(=O)[C@H](Cc2cc3ccccc3[nH]2)NC(=O)CC2(CCCCC2)SSC[C@H](C(=O)N2CCC[C@H]2C(=O)N[C@@H](CCCN=C(N)N)C(=O)NCC(N)=O)NC(=O)[C@H](CC(N)=O)NC(=O)[C@H](CCC(N)=O)NC1=O`, for which the ED in test [6] was determined as 2 nM/kg.
In [7], `CC[C@H](C)[C@@H]1NC(=O)[C@@H](Cc2c[nH]c3ccccc23)NC(=O)CC2(CCCCC2)SSC[C@@H](C(=O)N2CCC[C@H]2C(=O)N[C@@H](CCCN)C(=O)NCC(N)=O)NC(=O)[C@H](CC(N)=O)NC(=O)[C@H]([C@@H](C)O)NC1=O` [listing 1 of 2 here] came in with an ED of 3.08 nM/kg.
Consider `CC[C@H](C)[C@@H]1NC(=O)[C@H](Cc2ccc(O)cc2)N(C)C(=O)CC2(CCCCC2)SSC[C@H](C(=O)N2CCC[C@H]2C(=O)N[C@@H](CCCN)C(=O)NCC(N)=O)NC(=O)[C@H](CC(N)=O)NC(=O)[C@H](CCC(N)=O)NC1=O`, for which the ED in [6] was 3.73 nM/kg.
Turning to `CC[C@H](C)[C@@H]1NC(=O)[C@@H](Cc2c[nH]c3ccccc23)NC(=O)CC2(CCCCC2)SSC[C@H](C(=O)N2CCC[C@H]2C(=O)N[C@@H](CCCN=C(N)N)C(=O)NCC(N)=O)NC(=O)[C@H](CC(N)=O)NC(=O)[C@H](CCC(N)=O)NC1=O` ([dW]IQN[dC]PRG-NH2; linker N-5 via X2), the Kb is 0.0295 µM in [4] and more than 2.51 µM in [5].
In [7], `CC[C@H](C)[C@@H]1NC(=O)[C@H](Cc2ccc(OC)cc2)NC(=O)CC2(CCCCC2)SSC[C@H](C(=O)N2CCC[C@H]2C(=O)N[C@@H](CCCN)C(=O)NCC(N)=O)NC(=O)[C@H](CC(N)=O)NC(=O)[C@H](CCC(N)=O)NC1=O` [listing 1 of 2 here] gave an ED of 3.11 nM/kg.
With `CC(C)[C@@H]1NC(=O)[C@H](Cc2ccccc2)NC(=O)[C@@H](Cc2ccccc2)NC(=O)CC2(CCCCC2)SSC[C@H](C(=O)N2CCC[C@H]2C(=O)N[C@@H](CCCN=C(N)N)C(=O)NCC(N)=O)NC(=O)[C@H](CC(N)=O)NC1=O`, the Kb in test [4] is 0.0275 µM; in test [5], 0.0562 µM. The results for the ED in [6] and in test [8] were 1.9 nM/kg and 3.9 nM/kg, respectively.
Turning to `CCOc1ccc(C[C@@H]2NC(=O)CC3(CCCCC3)SSC[C@H](C(=O)N3CCC[C@H]3C(=O)N[C@@H](CCCN=C(N)N)C(=O)NCC(N)=O)NC(=O)[C@H](CC(N)=O)NC(=O)[C@H](C(C)C)NC(=O)[C@H](Cc3ccccc3)NC2=O)cc1`, the Kb in test [4] is 0.0646 µM.
One may read the pA2 as the negative logarithm of the molar antagonist concentration that doubles the agonist concentration needed for the same response. Read a high pA2 as higher antagonist potency. `CC[C@H](C)[C@@H]1NC(=O)[C@@H](Cc2c[nH]c3ccccc23)NC(=O)CC2(CCCCC2)SSC[C@@H](C(=O)N2CCC[C@H]2C(=O)N[C@@H](CCCN)C(=O)NCC(N)=O)NC(=O)[C@H](CC(N)=O)NC(=O)[C@H]([C@@H](C)O)NC1=O` [listing 2 of 2 here]: the pA2 stood at 7.64 in [1], 8.02 in test [2] and 5.43 in test [4]. The Kb in test [3] is 0.0457 µM.
Turning to `NC(=O)CC[C@@H]1NC(=O)[C@H](Cc2ccccc2)NC(=O)[C@H](Cc2ccc(O)cc2)NC(=O)[C@H](N)CSSC[C@H](C(=O)N2CCC[C@H]2C(=O)N[C@@H](CCCN=C(N)N)C(=O)NCC(N)=O)NC(=O)[C@H](CC(N)=O)NC1=O`, the Antidiuretic activity in [9] is 0.82 U mg-1.
Take `CC[C@H](C)[C@@H]1NC(=O)[C@@H](Cc2cc3ccccc3[nH]2)NC(=O)CC2(CCCCC2)SSC[C@@H](C(=O)N2CCC[C@H]2C(=O)N[C@@H](CCCN=C(N)N)C(=O)NCC(N)=O)NC(=O)[C@H](CC(N)=O)NC(=O)[C@H](CCC(N)=O)NC1=O`: the ED in test [6] came out at 2 nM/kg.
With `CC[C@H](C)[C@@H]1NC(=O)[C@H](Cc2ccc(OC)cc2)NC(=O)CC2(CCCCC2)SSC[C@H](C(=O)N2CCC[C@H]2C(=O)N[C@@H](CCCN)C(=O)N[C@@H](Cc2ccc(O)cc2)C(N)=O)NC(=O)[C@H](CC(N)=O)NC(=O)[C@H]([C@@H](C)O)NC1=O`, in test [7], the ED came to 5.63 nM/kg.
For the compound `CC[C@H](C)[C@@H]1NC(=O)[C@H](Cc2ccc(OC)cc2)NC(=O)CC2(CCCCC2)SSC[C@H](C(=O)N2CCC[C@H]2C(=O)N[C@@H](CCCN)C(=O)NCC(N)=O)NC(=O)[C@H](CC(N)=O)NC(=O)[C@H](CCC(N)=O)NC1=O` [listing 2 of 2 here], the Kb is 0.0363 µM in test [1]; 0.0224 µM in test [2]; 0.0468 µM in test [3]; 0.0562 µM in [4]; 1.26 µM in [5].
Turning to `CC(C)[C@@H]1NC(=O)[C@@H](Cc2ccccc2)NC(=O)[C@@H](Cc2ccccc2)NC(=O)CC2(CCCCC2)SSC[C@@H](C(=O)N2CCC[C@H]2C(=O)N[C@@H](CCCN=C(N)N)C(=O)NCC(N)=O)NC(=O)[C@@H](CC(N)=O)NC1=O`, the figures for the ED in test [6] and in [8] were 0.58 nM/kg and 0.67 nM/kg, respectively.
As for `CC[C@H](C)[C@@H]1NC(=O)[C@H](Cc2ccc(OC)cc2)NC(=O)CC2(CCCCC2)SSC[C@@H](C(=O)N2CCC[C@H]2C(=O)N[C@@H](CCCN)C(=O)O)NC(=O)[C@H](CC(N)=O)NC(=O)[C@H]([C@@H](C)O)NC1=O`, the Kb in [1] is 0.00575 µM; in test [2], 0.0129 µM; in [4], 0.331 µM; in test [5] it was 3.16 µM. In addition, the ED in test [6] came out at 23 nM/kg.
In the case of `CCOc1ccc(C[C@H]2NC(=O)CC3(CCCCC3)SSC[C@@H](C(=O)N3CCC[C@H]3C(=O)N[C@@H](CCCN=C(N)N)C(=O)NCC(N)=O)NC(=O)[C@H](CC(N)=O)NC(=O)[C@H](C(C)C)NC(=O)[C@H](Cc3ccccc3)NC2=O)cc1`, the Kb in test [4] is 0.00603 µM. Besides, the ED in test [6] is 0.45 nM/kg; in [8] it was 1.1 nM/kg.
Take `CC[C@H](C)[C@@H]1NC(=O)[C@@H](Cc2c[nH]c3ccccc23)NC(=O)CC2(CCCCC2)SSC[C@@H](C(=O)N2CCC[C@H]2C(=O)N[C@@H](CCCN=C(N)N)C(=O)NCC(N)=O)NC(=O)[C@H](CC(N)=O)NC(=O)[C@H](CCC(N)=O)NC1=O` ([dW]IQNCPRG-NH2; linker N-5 via X2): the Kb was 0.0275 µM in [4] and more than 1.26 µM in test [5].
As to `CC[C@H](C)[C@@H]1NC(=O)[C@H](Cc2ccc(OC)cc2)NC(=O)CC2(CCCCC2)SSC[C@H](C(=O)N2CCC[C@H]2C(=O)N[C@@H](CCCN)C(=O)O)NC(=O)[C@H](CC(N)=O)NC(=O)[C@H]([C@@H](C)O)NC1=O` [listing 2 of 2 here], the ED in test [7] was 9.24 nM/kg.
Turning to `CC[C@H](C)[C@@H]1NC(=O)[C@H](Cc2ccc(OC)cc2)NC(=O)CC2(CCCCC2)SSC[C@@H](C(=O)N2CCC[C@H]2C(=O)N[C@@H](CCCN)C(=O)N[C@@H](Cc2ccc(O)cc2)C(N)=O)NC(=O)[C@H](CC(N)=O)NC(=O)[C@H]([C@@H](C)O)NC1=O`, the Kb in test [10] is 0.0234 µM; in test [1], 0.00525 µM; in test [4], 0.0955 µM. This compound had an ED in test [6] of 6.6 nM/kg. The same compound showed an Antidiuretic activity in test [8] of 0.015 U mg-1.
